The test system of the assay is virus-infected cells, titer reduction, log titer change. Description: antiviral yield reduction in infected cells – cell-based, 55 compounds from dose-response study, confirmation (AID 2024).

The record followed here is PubChem BioAssay AID2024 (Southern Research Specialized Biocontainment Screening …, 2009).

The source made the active and inactive calls. No rule for the calls is given here.

For the molecule `CCCN(CCC)CCCNC(=S)Nc1ccc2nc(N3CCCC3)cc(C)c2c1`, the log titer change, negative = reduction (at 20 µM (top of the series)) is -0.33 (inactive).

For the molecule `CC(C)c1oc(=O)cc2c1[C@@H](O)[C@H]1OC(=O)[C@@]3(C)C[C@@H](O)[C@@H](O)[C@@]2(C)C13` (stereo partly drawn), the log titer change, negative = reduction (at 20 µM (top of the series)) was -0.25 (inactive).

Turning to `COc1cc2c(OC(C)=O)c3c(c(-c4ccc5c(c4)OCO5)c2cc1OC)C(=O)OC3`, the log titer change, negative = reduction (at 20 µM (top of the series)) was -2. In the case of `O=C(CSc1nc2ccccc2c(=O)n1-c1ccc(F)cc1)Nc1ccc2c(c1)CCC2`, the log titer change, negative = reduction (at 20 µM (top of the series)) is -0.69 (inactive). On to `CCN1CCN(CCCNC(=O)C2CCCN(c3nc4c(C)cc(C)cc4s3)C2)CC1` (stereo not drawn), for which the log titer change, negative = reduction (at 20 µM (top of the series)) is -0.36 (inactive). Take `NCCCNc1nc(N)c([N+](=O)[O-])c(NC2CCCCC2)n1`: the log titer change, negative = reduction (at 20 µM (top of the series)) is -4.74. On the same count and under the same terms, the same measure for `Cc1ccc(-c2cc(C(=O)NCCCN3CCCC3)c3ccccc3n2)cc1C`: 0.19 (inactive); for `COc1ccc(-c2csc(N(CCCN(C)C)C(=O)c3ccccc3Cl)n2)cc1`: -1.5. `Cn1c(=O)[nH]c(=O)c2c1nc(N1CCN(C(c3ccccc3)c3ccccc3)CC1)n2CCO`: the log titer change, negative = reduction (at 10 µM (top of the series)) was -1.17. As to `CCN(CC)CCCNC(=S)N1CCN(c2nc(-c3ccccc3)cs2)CC1`, where the note is “at 20 µM (top of the series)”, the log titer change, negative = reduction is -0.57 (inactive). In the case of `CN(C)CCCN(C(=O)c1ccc2c(c1)OCCO2)c1nc2ccc(Cl)cc2s1`, the log titer change, negative = reduction (at 20 µM (top of the series)) is -0.33 (inactive).

For the molecule `CN(CCCNC(=O)c1cc2c(Cl)nc3ccccc3c2s1)Cc1ccccc1`, the log titer change, negative = reduction (at 20 µM (top of the series)) was 0.43 (inactive). Same read-out and setting: to `CCN(CC)CCNC(=O)C1CCN(S(=O)(=O)c2c(C)noc2/C=C/c2ccccc2F)CC1` belongs 0.27 (inactive); to `CC1CCCC(C)N1CCCNC(=O)c1cc2c(s1)-c1ccccc1OC2` (stereo not drawn), 0.43 (inactive); to `Cc1c(Cc2ccccc2)c(NCCN(C)C)n2c(nc3ccccc32)c1C#N`, 0.43 (inactive). For the molecule `CCN(CC)CCCNC(=O)c1cc2c(-c3cccc(OC)c3)nn(C)c2s1`, the log titer change, negative = reduction (at 20 µM (top of the series)) is 0.93 (inactive). `CCOc1ccc(NC(=O)c2c(NC(=O)CN3CCN(C)CC3)sc3c2CCC3)cc1`: the log titer change, negative = reduction (at 20 µM (top of the series)) is 0 (inactive). The same measure, in the same setting: the same measure for `CCN1CCN(CCCNC(=O)c2ccc3c(Cl)c4c(nc3c2)CCCC4)CC1`: -0.02 (inactive); for `Cc1c(NC(=O)COC(=O)c2cc(-c3ccc(-c4ccccc4)cc3)nc3ccccc23)c(=O)n(-c2ccccc2)n1C`: 0.31 (inactive); for `CC1CCCN(CCCNC(=O)c2cc3c(s2)-c2ccccc2OC3)C1` (stereo not drawn): -0.41 (inactive). `CC1CCN(CCCNC(=O)c2cc3c(s2)-c2ccccc2OC3)CC1`: the log titer change, negative = reduction (at 20 µM (top of the series)) is 0.43 (inactive). Still for that read-out and setting: to `CCOC(=O)c1c(CN2CCN(CCO)CC2)n(-c2ccccc2)c2cc(Br)c(O)cc12` belongs -0.07 (inactive). Still for that read-out and setting: the same measure for `CN(C)CCCNC(=S)N1CCN(c2nc(-c3ccccc3)cs2)CC1`: -0.02 (inactive). As for `COc1ccc(C2c3ccc4ccccc4c3Oc3ncn(CCO)c(=N)c32)cc1` (stereo not drawn), for the setting “at 20 µM (top of the series)”, the log titer change, negative = reduction was 0.39 (inactive). Consider `CN(C)CCCNC(=O)c1cc2sc3ccccc3c2s1`, for which the log titer change, negative = reduction (at 20 µM (top of the series)) is -0.17 (inactive). On to `O=C(Oc1ccccc1)c1ccc(-n2cnnn2)cc1`, for which the log titer change, negative = reduction (at 20 µM (top of the series)) was -0.73 (inactive). Turning to `Cc1ccc(C)c(N2CCN(CCCNC(=O)CCC(=O)N3CCOc4ccc(Cl)cc43)CC2)c1`, for the setting “at 20 µM (top of the series)”, the log titer change, negative = reduction is -0.03 (inactive).

Turning to `Cc1ccc2[nH]c(=O)c(CN(CCCN(C)C)C(=O)Nc3ccc(Cl)cc3)cc2c1`, the log titer change, negative = reduction (at 20 µM (top of the series)) is -2.15. Consider `O=C(CSc1nc2ccccc2c(=O)n1-c1ccc(F)cc1F)Nc1ccc2c(c1)CCC2`, for which, for the setting “at 20 µM (top of the series)”, the log titer change, negative = reduction is -2.18. As to `CCCN1CCN(CCCNC(=O)c2cc3c(s2)-c2ccccc2OC3)CC1`, where the note is “at 20 µM (top of the series)”, the log titer change, negative = reduction is 0 (inactive). For `COc1ccc(C2c3ccc4ccccc4c3Oc3ncn(CCCO)c(=N)c32)cc1OC` (stereo not drawn), under “at 20 µM (top of the series)”, the log titer change, negative = reduction was 0.54 (inactive). `CC[C@@H](C(=O)[C@@H](C)[C@@H](O)[C@H](C)CCc1ccc(C)c(O)c1C(=O)O)[C@H]1O[C@](CC)([C@H]2CC[C@](O)(CC)[C@H](C)O2)C[C@@H]1C`: the log titer change, negative = reduction (at 20 µM (top of the series)) is 0.14 (inactive).

As for `CCN(CC)CCn1c(=N)n(CC(=O)c2ccc(Br)s2)c2ccccc21`, the log titer change, negative = reduction (at 20 µM (top of the series)) was 0.31 (inactive).

As to `CCN1CCN(c2ncc(C(=O)Nc3cc(Cl)c(OC)cc3OC)c3ccccc23)CC1`, where the note is “at 20 µM (top of the series)”, the log titer change, negative = reduction was -0.17 (inactive). As to `CC1=CC(C)(C)N2C(=O)C3(NCCc4c3[nH]c3ccccc43)c3cc(C)cc1c32` (stereo not drawn), the log titer change, negative = reduction (at 10 µM (top of the series)) was -1.27. In the case of `CN1CCN(CCCN2c3ccccc3Sc3ccc(Cl)cc32)CC1`, the log titer change, negative = reduction (at 20 µM (top of the series)) was -0.64 (inactive). On the same count and under the same terms, to `O=C(CN1C(=O)/C(=C/c2ccc(C(F)(F)F)cc2)Sc2ccccc21)NCCCN1CCOCC1` belongs -0.16 (inactive).

`COc1ccc(C2c3c(ncn(CCN4CCOCC4)c3=N)Oc3ccc4ccccc4c32)cc1` (stereo not drawn): the log titer change, negative = reduction (at 20 µM (top of the series)) was 0.93 (inactive). The same measure, in the same setting: the same measure for `Cc1cccn2c(=O)c3cc(C(=O)NCCN4CCOCC4)c(=N)n(Cc4ccc(F)cc4)c3nc12`: -0.03 (inactive); for `Cc1ccc2oc(=O)c3cc(C(=O)NCCCN4CC(C)CC(C)C4)sc3c2c1` (stereo not drawn): 0.31 (inactive).

On to `Brc1ccc2c(c1)CN1CCCC1=N2`, for which the log titer change, negative = reduction (at 20 µM (top of the series)) is -1.9.

In the case of `Cc1ccc2cc(C#N)c(N3CCCN(C(=S)NCCCN(C)C)CC3)nc2c1`, the log titer change, negative = reduction (at 20 µM (top of the series)) is -0.02 (inactive). The same measure, in the same setting: the same measure for `CN(C)CCCN1c2ccc([N+](=O)[O-])cc2CCc2cc([N+](=O)[O-])ccc21`: 0 (inactive). Consider `CCOc1ccc(/C=C/c2nc(C#N)c(NCCCN(C)C)o2)cc1`, for which, under “at 20 µM (top of the series)”, the log titer change, negative = reduction is 0.31 (inactive).

Take `CN1CCN(CCNC(=O)c2ccc3nc(-c4ccc(F)cc4)c(-c4ccc(F)cc4)nc3c2)CC1`: the log titer change, negative = reduction (at 20 µM (top of the series)) was -0.03 (inactive). Still for that read-out and setting: to `CCN(CC)CCCC(C)NC(=O)c1c(NC(=O)c2ccccc2)sc2c1CCCC2` (stereo not drawn) belongs 0.55 (inactive); to `CN(C)CC(O)COc1ccc(C(C)(C)c2ccc(OCC(O)CN(C)C)cc2)cc1` (stereo not drawn), -1.17. Consider `COc1cc(CNC(C)(C)CO)cc(Br)c1OCc1ccc(Cl)cc1`, for which the log titer change, negative = reduction (at 20 µM (top of the series)) was 0.27 (inactive). As for `CCN(CC)CCNC(=O)c1sc2ncn(CC(=O)Nc3ccc(C)c(Cl)c3)c(=O)c2c1C`, for the setting “at 10 µM (top of the series)”, the log titer change, negative = reduction is 0.5 (inactive). As to `CC(C)c1oc(=O)cc2c1[C@@H](O)[C@H]1OC(=O)[C@@]3(C)CC[C@@H](O)[C@@]2(C)C13` (stereo partly drawn), under “at 20 µM (top of the series)”, the log titer change, negative = reduction is -1.17.

As to `Cc1cc(C)cc(SCc2noc(C(=O)NCCN(C)C)c2C(=O)NCCN(C)C)c1`, under “at 20 µM (top of the series)”, the log titer change, negative = reduction was -0.17 (inactive). Same read-out and setting: to `N=C1C(c2nc(-c3ccc(Cl)cc3)cs2)=C(O)CN1CCCN1CCOCC1` belongs 1.48 (inactive). On to `CCN1CCN(CCCNC(=O)c2cc3c(s2)-c2ccccc2OC3)CC1`, for which the log titer change, negative = reduction (at 10 µM (top of the series)) is -0.5 (inactive).
